Test results published in paper PMC9141032 (International Journal of Molecular Sciences, 2022).

Experiments:
[1] = test system: imidazoline I2 receptors (I2-IR); parameters: method as in ref 32, 33 = [32]; 32. Escolano C. Pallás M. Griñán-Ferré C. Abás S. Callado L.-F. García-Sevilla J.A. Synthetic I 2 Imidazoline Receptor Ligands for Prevention or Treatment of Human Brain Disorders Patent WO 2019/12185 || [33]; PMID 32150414; doi:10.1021/acs.jmedchem.9b02080; 33. Abás S. Rodríguez-Arévalo S. Bagán A. Griñán-Ferré C. Vasilopoulou F. Brocos-Mosquera I. Muguruza C. Pérez B. Molins E. Luque F.J. Bicyclic α-Iminophosphonates as High Affinity Imidazoline I 2 Rec; conditions: cited from earlier work
[2] = test system: SAMP8 murine model; conditions: cited from earlier work
[3] = Metabolic profiling in human liver microsomes (LC-HRMS); format: in vitro ADME
Experimental: (§1) The objective of the study is to evaluate the formation of the main metabolites from B06 in HLM incubations and MLM incubations preceding the in vivo metabolic study, using these same incubations to identify the possible metabolites. […] Reactions without NADPH were also incubated to rule out non-NADPH metabolism or chemical instability in the incubation buffer. Verapamil was included as positive control to monitor incubation course. All reactions were terminated using 60 µL of ice-cold acetonitrile at 0, 5, 15, 30, 45, and 60 min. The plates were centrifugated at 3500 rpm for 15 min. All experiments were conducted in triplicates. Samples were analysed by LC-HMRS in positive ionization mode. Compound incubations without NADPH and compound reference standard were used as interference control for each incubation sample.
Metabolic profiling of B06 in human liver microsomes
The equipment used for the analysis was an Agilent 1290 Infinity UHPC, ABSciex 5600 QTOF Mass Spectrometer, Metabolite Pilot V 1.5 Sofware.
Method: ionization mode, electrospray positive; acquisition mode, TOF MS with IDA MS/MS; […]
All the tentative identified metabolites have been evaluated using of a score (40 value). This score depend on mass defect, isotope pattern, mass a ccur a cy and MS/MS. In all the cases the score was equal or greater than 68%.
Table S9. Metabolite time course in HLM incubations for B06
Peak Description Time Formula m/z Mass R.T. Peak % %
ID incubation error (min) Area Area Score […]

[4] = Metabolic profiling in mouse liver microsomes (LC-HRMS); format: in vitro ADME
Experimental: as §1
Metabolic profiling of B06 in mouse liver microsomes
The equipment used for the analysis wa s an Agilent 1290 Infinity UHPC, ABSciex 5600 QTOF Mass Spectrometer, Metabolite Pilot V 1.5 Sofware.
Method: ionization mode, electrospray positive; acquisition mode, TOF MS with IDA MS/MS; colum, Atlantis T3 C18, 2.1 x 15 mm, 3 μ m; mobile phase, water:acetonitrile: 0.1% formic acid; flow […]
All the tentative identified metabolites have been evaluated using of a score (40 value). This score depend on mass defect, isotope pattern, mass accuracy and MS/MS. In all the cases the score was equal or greater than 68%.
All analytical determinations of B06 were performed in according to the recommendations of the […]
Table S10. Metabolite time course in MLM incubations for B06
Peak Description Time Formula m/z Mass R.T. Peak Area % %
ID incubation error (min) Area Score
1 Safety testing of drug metabolites. Guidance for industry. U.S. Department of Health and Human Services Food and Drug Administration Center for Drug Evaluation and Research (CDER) March 2020 Pharmacology/Toxicology. https://www.fda.gov/regulatory‐information/search‐fda‐guidance‐ documents/safety‐testing‐drug‐metabolites

## c1ccc2c(c1)OCC(C1=NCCN1)O2 (stereo not shown) [idazoxan]
[1]; I2-IR ([3H]2-BFI) versus α2-AR ([3H]RX821002), human frontal cortex
  ratio of I2/α2: non I2/α2 selectivity
[1]; membranes of post mortem human frontal cortex, against [3H]2-BFI
  pKi: 7.41 ± 0.63

## CCOP(=O)(OCC)C1(c2ccccc2)N=CN(Cc2ccc(F)c(Cl)c2)C1(C)C (stereo not shown) [MCR5]
[2]
  effect on cognition and hallmarks: cognitive improvement and amelioration of hallmarks

## CCOP(=O)(O)[C@]1(c2ccccc2)N=C[C@H]2C(=O)N(c3ccc(F)c(Cl)c3)C(=O)[C@H]21 [Compound 1, ethyl hydrogen [(1R,3aS,6aS)-5-(3-chloro-4-fluorophenyl)-4,6-dioxo-1-phenyl-1,3a,4,5,6,6a-hexahydropyrrolo[3,4-c]pyrrol-1-yl]phosphonate]
[3]; HLM incubation of B06, 15 min
  % Area of metabolite in chromatogram: 8.4%
[3]; HLM incubation of B06, 30 min
  % Area of metabolite in chromatogram: 17.8%
[3]; HLM incubation of B06, 45 min
  % Area of metabolite in chromatogram: 26.2%
[3]; HLM incubation of B06, 60 min
  % Area of metabolite in chromatogram: 36%
[3]; HLM incubation of B06, 60 min, listed as M1
  % Area of metabolite in chromatogram: 36.0%
[4]; MLM incubation of B06, 5 min
  % Area of metabolite in chromatogram: 10.7%
[4]; MLM incubation of B06, 15 min
  % Area of metabolite in chromatogram: 30.9%
[4]; MLM incubation of B06, 30 min
  % Area of metabolite in chromatogram: 60.9%
[4]; MLM incubation of B06, 45 min
  % Area of metabolite in chromatogram: 81.6%
[4]; MLM incubation of B06, 60 min
  % Area of metabolite in chromatogram: 88.9%
